Patent publication US9175016B2, “Prochelators useful for inhibiting metal-associated toxicity” (Duke University, priority 2009, dated 2015)
One block for each compound: values may come before it.

Assays:
Aβ [1] = experiment: Turbidity (light scattering) assay of metal-induced Aβ aggregation; type: biochemical
Method: FIG. 4. […] Samples, which contain various combinations of 10 μM Aβ, 10 μM Cu(Gly)2, 10 μM ZnCl2, 10 or 20 μM 8HQ, 20 or 100 μM QBA, 20 or 100 μM QBP, as indicated on the graph, were incubated in a 96 well plate at 37° C. Total volume per well was made up to 200 μL with Hepes buffer. Abs readings were taken 64 min after mixing (diagonal hashed bars). After one hour incubation, 1 mM H2O2 was added to each well and Abs readings were taken after 30 min (horizontal striped bars). Error bars represent the variability of triplicate measurements.

H2O2 production by Cu = experiment: Hydrogen peroxide detection by the Amplex Red/HRP assay (Aβ, Cu(Gly)2, ascorbic acid); type: biochemical
Method: FIG. 6. Hydrogen peroxide detection by the Amplex Red/HRP assay for samples containing various combinations of 200 nm Aβ, 200 nm Cu(Gly)2, 10 μM ascorbic acid, 2-200 μM QBP, 50-400 nm 8HQ, in a total volume of 50 μL buffer (50 mM hepes, 150 mM NaCl). Samples were incubated at 37° C. for approximately 1 h before 50 μL of Amplex Red/HRP reagent was added. Fluorescence readings were taken with λex=485 and λem=590 nm.
(§1) The complex [Cu(8HQ)2] has a characteristic absorbance band at 375 nm, which is clearly visible in samples that contain Aβ, Cu^2+ and 8HQ. […] Mass spectral analysis of the sample gives m/z of 352, further confirming formation of [Cu(8HQ)2] in these complex mixtures. The previous experiment contained a relatively high concentration (1 mM) of H2O2 that was added in a single bolus. Several groups have shown that combinations of Aβ, Cu and reductants produce significant amounts of H2O2 from O2. Therefore, to investigate whether these conditions of more biologically relevant H2O2 production are sufficient for activating QPB, samples of Aβ, Cu^2+ (provided as Cu(Gly)2), ascorbic acid, and either 8HQ or QBP were monitored for H2O2 production with the Amplex Red assay. […] Samples that contain Cu and ascorbate (with or without Aβ) provide just over 300 nM detectable H2O2. […] When 8HQ is present at a 2:1 ratio to Cu, the amount of detectable H2O2 diminishes to one third that detected in the presence of Aβ. […] When QBP is added to the reaction mixture in place of 8HQ, a similar result is obtained.

[2] = Stability of QBP in aqueous solution (hydrolysis to QBA), monitored by UV-Vis and mass spectrometry; type: physicochemical
[3] = UV-vis spectra of oxidation and Cu2+ binding by QBP; settings: 100 μM QBP
Method: FIG. 2. Oxidation and Cu^2+ binding by QBP. 100 μM QBP and 50 μM Cu(Gly)2 were incubated in PBS buffer pH 7.4. After one hour, 4 mM H2O2 was added. After 60 min, oxidation and Cu binding were complete. Resulting spectrum is nearly identical to 8HQ-Cu spectra.
With the phenol of 8HQ masked by the pinanediol boronic ester, the QBP prochelator should have little to no affinity for metal ions.

[4] = Rate of conversion of QBP to 8HQ by H2O2 (pseudo first-order, spectrophotometric); type: physicochemical; settings: 100 μM QBP, PBS pH 7.4, 1-10 mM H2O2
Method: FIG. 3. Plot of kobs at varying concentrations of H2O2 to obtain the rate constant k for the conversion of QBP to HQ. QBP was initially dissolved in a minimal amount of methanol and then diluted into PBS buffer, pH 7.4, to a final concentration of 100 μM. Spectra were taken immediately after addition of 1-10 mM H2O2; at least 40 spectra were collected before 50% conversion of prochelator to chelator. The change in absorbance at 273 nm was used to follow the reaction. The negative slope of the linear fit of ln(1−(A−Ao/Ao)) vs time gives the observed rate constant kobs. The slope of the line through data kobs vs [H2O2] provides k (M^−1 s^−1).
In order to determine the rate of conversion of QBP to 8HQ by H2O2 (Eq. 2), reactions were monitored spectrophotometrically under pseudo first-order conditions of excess H2O2. The observed rate constants (kobs) were plotted against peroxide concentration (FIG. 3) to give a rate constant k of 0.13 M^−1 s^−1. rate=k[QBP][H2O2] Eq. 2

Aβ [5] = experiment: UV-vis analysis of H2O2-treated Aβ samples; type: biochemical; settings: samples containing Aβ/Cu/QBP/H2O2
Text: FIG. 5. UV-vis analysis of H2O2-treated Aβ samples. The samples are the same ones as in FIG. 4.
Further confirmation that Cu(8HQ)2 is, indeed, generated in the reaction of Aβ/Cu/QBP/H2O2 described in FIG. 4 comes from the UV-vis spectrum of the reaction mixture, shown in FIG. 5.
as §1

[6] = preliminary investigations
Text: Quinoline boronic acid (QBA) is commercially available. […] In order to prevent premature metal binding, it was therefore necessary to form a boronic ester.

SMILES: Oc1cccc2cccnc12 [8HQ, 8-hydroxyquinoline, reference compound]
- copper-induced Aβ aggregation (Aβ [1]; 2 equiv of 8HQ, 10 μM Aβ, 10 μM Cu(Gly)2, 37° C.): completely inhibits
- zinc-induced Aβ aggregation (Aβ [1]; 2 equiv of 8HQ, 10 μM Aβ, 10 μM ZnCl2, 37° C.): significantly reduces
- amount of detectable H2O2 relative to that detected in the presence of Aβ (H2O2 production by Cu; 8HQ at a 2:1 ratio to Cu): one third
- H2O2 production (H2O2 production by Cu; 8HQ at a quarter of an equiv of Cu, 200 nM Cu(Gly)2, 200 nM Aβ, 10 μM ascorbic acid, 1-h incubation, pH 7.4): inhibits H2O2 production

- hydrolysis to QBA in aqueous solution ([2]; between pH 5-8, over the course of 10 h): no signs of hydrolysis
- hydrolysis to QBA in aqueous solution ([2]; low and high pH values outside pH 5-8, mass spectrometry): some hydrolysis to QBA was detected
- time after H2O2 addition at which oxidation and Cu binding were complete ([3]; 50 μM Cu(Gly)2, PBS pH 7.4, 4 mM H2O2): 60 min
- spectrum after addition of H2O2 ([3]; 50 μM Cu(Gly)2, PBS pH 7.4, 4 mM H2O2 added): matches that of [Cu(8HQ)2]
SMILES: CC1(C)C2CC3OB(c4cccc5cccnc45)OC3(C)C1C2 (stereo not shown) [QBP]
- interaction with Cu2+ in prochelator form (UV-vis spectral change) ([3]; 50 μM Cu(Gly)2, PBS pH 7.4, one hour, no H2O2): does not interact with Cu^2+
- rate constant k for conversion of QBP to 8HQ by H2O2 [4]: 0.13 M⁻¹ s⁻¹
- turbidity of Aβ/Cu2+ samples after H2O2 addition (Aβ [1]; 1 mM H2O2 added after one hour incubation, read 30 min later): significant decrease in turbidity
- metal-induced Aβ aggregation (Aβ [1]; 20 or 100 μM QBP, no H2O2): does not interfere
- formation of [Cu(8HQ)2] (absorbance band at 375 nm) (Aβ [5]): [Cu(8HQ)2] has, indeed, been generated
- H2O2 detected relative to the concentration obtained in the absence of chelator (H2O2 production by Cu; 100 μM QBP with Cu, ascorbate and Aβ): a third
- H2O2 detected (H2O2 production by Cu; 100 μM QBP with Cu, ascorbate and Aβ, 1-h incubation): about 100 nM

SMILES: OBO.c1ccc2ncccc2c1 [QBA, Quinoline boronic acid]
- interaction with metal ions [6]: interacts directly with metal ions
